Source: patent US8829035B2, “Agent for treatment or prevention of diseases associated with activity of neurotrophic factors” (Sumitomo Chemical Company, Limited, priority 2009, dated 2014)

system: rats with streptozotocin-induced diabetes; experiment: Motor nerve conduction velocity (MNCV) in sciatic nerves of rats with streptozotocin-induced diabetes; format: in vivo, Slc:Wistar rats; settings: 5 mL/kg of 10 mg/mL drug solution orally once per day for 4 weeks, compared to solvent administration control group
Procedure: The preventative effect of the compounds on the prolongation of latency of the motor nerve conduction velocity (MNCV) were studied in the sciatic nerves of rats with streptozotocin-induced diabetes.
The groups were structured as a non-diabetes control group, a diabetes control group, and a drug administration group. After 8 days of convention rearing, the 8-week male Slc:Wistar rats in the respective groups were given 2 mL/kg of pH 4.5, 0.75 mmol/L citrate buffer solution (non-diabetes control group), or 2 mL/kg of a solution prepared from […] of streptozotocin (chemical name: N-(methylnitrosocarbamoyl)-α-D-glucosamine; manufacturer: SIGMA) in 0.75 mmol/L citrate buffer solution (diabetes control group and drug administration group), single administration in the caudate vein. After 4 more weeks of rearing, the animals in the non-diabetes control group and the diabetes control group were given 5 mL/kg of water for injection, while the animals in the drug administration group were given 5 mL/kg of a drug solution prepared from 10 mg/mL of the drug in water for injection. Administration for all groups was orally once per day for 4 weeks. MNCV measurements were carried out 3 times for each group. […]

| Structure (SMILES) | motor nerve conduction velocity (MNCV) |
| --- | --- |
| Cc1nc2cc(-c3nc4ccccc4o3)ccc2n1C1CCOCC1 [Ex. 12, 5-(benzoxazol-2-yl)-2-methyl-1-(tetrahydropyran-4-yl)benzimidazole methanesulfonate] | recovery of motor nerve conduction velocity was observed |

system: middle cerebral artery occlusion/reperfusion model; experiment: Middle cerebral artery occlusion/reperfusion model, infarct volume; format: in vivo, C57BL/6J mice; settings: mice, 90 minutes occlusion; 30 mg/kg via the caudate vein at 3, 24 and 48 hours after occlusion; brains taken 3 days after occlusion/reperfusion
Procedure: A middle cerebral artery occlusion/reperfusion model was prepared by taking 8-week male C57BL/6J mice after 12 days convention rearing, and ligating the left and external common carotid arteries, then recanalizing them after the middle cerebral artery had been occluded for a period of 90 minutes. In this model, the compounds were administered at 3, 24, and 48 hours after occlusion as 30 mg/kg via the caudate vein. The animals were decapitated 3 days after the occlusion/reperfusion, the skulls were cut open from the cerebellar side and the brain was extracted. The extracted brains were fixed with Bouin's solution (pH 3.5-4.0). […] The infarct volumes were then calculated as shown below.
Optical microscope: digital images were taken using an optical microscope (object lens×1) that was fitted with a camera (MCD-350, Olympus). […] Based on the images pasted into the page mounts, the infarct areas (S, mm^2), lateral (left) infarct areas (mm^2) and lateral (right) non-infarct areas (MR, mm^2) were measured using an image analysis system (Win ROOF v. 5.6, Mitani), and the non-infarct areas for the left-side infarcts (ML, mm^2) [lateral (left) infarct area (mm^2)−infarct area (mm^2)] were calculated.
Using the equations below, the infarct volumes (SV, mm^3), non-infarct volumes for the left-side infarcts (MLV, mm^3), and the lateral (right) non-infarct volumes (MRV, mm^3) were calculated. […]

| Structure (SMILES) | infarct volume |
| --- | --- |
| Cc1nc2cc(-c3nc4ccccc4o3)ccc2n1C1CCOCC1 [Ex. 12, 5-(benzoxazol-2-yl)-2-methyl-1-(tetrahydropyran-4-yl)benzimidazole methanesulfonate] | reductions in the infarct volumes were confirmed |

system: activity of 200 ng/mL of NGF (NXF promoter-driven luciferase in PC12 cells); experiment: Luciferase reporter assay (NXF promoter) in PC12 cells: potentiation of NGF activity; format: cell-based, rat; parameters: key: +: Showed relatively weak potentiation (potentiation only exhibited at 10 μM); ++: Showed potentiation; +++: Showed particularly strong potentiation (2-fold or greater potentiation of the activity of 200 ng/mL of NGF at 1 μM); settings: Test Example 1, relative luciferase activity vs 200 ng/mL NGF alone, overnight (approx. 16 hours)
Procedure: The forward primer 5′-[…]-3′ and the reverse primer 5′-[…]-3′ were prepared as the PCR primers according to the sequence information for the NXF gene genome sequence (Accession Nos. AB054577 and NC—000085), and the PCR method was used to isolate from approximately 5 kbp upstream from the translated region of the NXF gene promoter portion to the vicinity of the transcription start site. For this, 1 μg of mouse genomic DNA (Takara) was used as the template, and the 2-step PCR reaction was carried out for 35 cycles, the conditions for which were 95° C./1 m in the denaturing step, and 68° C./8 m in the annealing and extension steps, to obtain the PCR product. The NXF promoter fragment was inserted into the SmaI site of the pGL3 Basic vector (Promega) in the upstream of luciferase gene to prepare a reporter plasmid that would express the luciferase enzyme driven by the NXF promoter.
PC12 cells (available from the ATCC) were cultured using RPMI medium (GIBCO-BRL) with 5% FCS (GIBCO-BR) and 15% horse serum (GIBCO-BRL) added, and 1 mM in sodium pyruvate (GIBCO-BRL), at 37° C. in the presence of 5% CO2. After transfection in 10^6 of these PC12 cells for 2 days with 12 μg of the above-described reporter plasmid and 1 μg of pRC/RSV vector (Invitrogen) using the Lipofectamine 2000 reagent (Invitrogen), the medium was exchanged for fresh medium containing 40 mg/L of geneticin sulfate (GIBCO), and this was cultured continuously. Culturing was continued for approximately 1 month with medium exchange of the cultured medium containing 40 mg/L of geneticin sulfate (GIBCO) every several days, with the result that multiple colonies of the obtained cells were picked up. Among these, one of the colonies that induced luciferase activity in the presence of 40 ng/mL of NGF (Wako Pure Chemicals) was selected and used for the cells to evaluate the activity of the compounds below.
These cells were set up in 96-well plates with 80% confluence, and the luciferase reporter assay was conducted using the Promega Steady Glo luciferase assay kit. The procedure was carried out overnight (approx. 16 hours) using culture medium containing the compound, and the Steady Glo substrate solution was added to the cells in half-diluted in PBS after removal of all remaining medium containing the compound. After this was allowed to stand for 30 minutes, the respective quantity of light produced was measured with a luminometer (Envision Perkin Elmer).
The activity of the compounds for evaluation was measured as the potentiation of the activity of 200 ng/mL of NGF. For the experiment control wells, the negative control well had medium containing only a final concentration of 0.1% DMSO, the positive control well had medium containing a saturation concentration of NGF. In addition, a test well was set up containing 0.1% DMSO with 200 ng/mL of NGF added corresponding to a 0 compound concentration. When its luciferase activity was taken as a standard, the relative luciferase activity could be calculated for the test wells to which the compound solution (dissolved in DMSO and prepared to have a final DMSO concentration of 0.1%) had been added in addition to the 200 ng/mL of NGF, to find the potentiation of the activity of 200 ng/mL of NGF due to that compound.

| Structure (SMILES) | Activity (potentiation of NGF activity) |
| --- | --- |
| Cc1nc2cc(-c3nc4ccccc4o3)ccc2n1-c1ccccc1 [Syn. Ex. 3, 5-(benzoxazol-2-yl)-2-methyl-1-phenylbenzimidazole] | ++ |

same assay, conditions: Test Example 4, same manner as Test Example 1, relative luciferase activity vs 200 ng/mL NGF alone

| Structure (SMILES) | Activity (potentiation of NGF activity) |
| --- | --- |
| Cc1nc2cc(-c3nc4cc(C(=O)O)ccc4o3)ccc2n1C1CCOCC1 [Ex. 97, 5-(5-carboxylbenzoxazol-2-yl)-2-methyl-1-(tetrahydropyran-4-yl)benzimidazole] | ++ |
| CCCNC(=O)c1ccc2oc(-c3ccc4c(c3)nc(C)n4C3CCOCC3)nc2c1 [Ex. 99, 2-methyl-5-(5-n-propylaminocarbonylbenzoxazol-2-yl)-1-(tetrahydropyran-4-yl)benzimidazole] | ++ |
| CC(=O)NCc1nc2cc(-c3nc4cc(Cl)ccc4o3)ccc2n1C1CCOCC1 [Ex. 104, 2-acetylaminomethyl-5-(5-chlorobenzoxazol-2-yl)-1-(tetrahydropyran-4-yl)benzimidazole] | ++ |
| Cc1nc2cc(-c3nc4ccccc4o3)ccc2n1CC(=O)N1CCOCC1 [Ex. 107] | + |
| Cc1nc2cc(-c3nc4ccccc4o3)ccc2n1CCNC(=O)CCC(=O)O [Ex. 108, 4-oxo-4-(2-(5-(benzoxazol-2-yl)-2-methylbenzimidazol-1-yl)ethyl)aminobutyric acid] | ++ |
| Cc1nc2cc(-c3nc4ccccc4o3)ccc2n1CCNC(=O)C(F)(F)F [Ex. 109, 5-(benzoxazol-2-yl)-2-methyl-1-(2-trifluoroacetylaminoethyl)benzimidazole] | ++ |
| c1ccc2oc(-c3ccc4c(c3)nc(CC3CCOCC3)n4C3CCOCC3)nc2c1 [Ex. 111, 5-(benzoxazol-2-yl)-1-(tetrahydropyran-4-yl)-2-(tetrahydropyran-4-yl)methylbenzimidazole] | ++ |
| Cc1nc2cc(-c3nc4ccccc4o3)c(Cl)cc2n1C1CCOCC1 [Ex. 112, 5-(benzoxazol-2-yl)-2-methyl-1-(tetrahydropyran-4-yl)-6-chlorobenzimidazole] | ++ |
| COC(=O)c1ccc(Cn2c(C)nc3cc(-c4nc5ccccc5o4)ccc32)cc1 [Ex. 113, 5-(benzoxazol-2-yl)-1-(4-methoxycarbonylphenylmethyl)-2-methylbenzimidazole] | ++ |
| Cc1nc2cc(-c3nc4ccccc4o3)ccc2n1Cc1ccc(C(=O)O)cc1 [Ex. 114, 5-(benzoxazol-2-yl)-1-(4-carboxyphenylmethyl)-2-methylbenzimidazole] | ++ |
| COC(=O)c1cccc(Cn2c(C)nc3cc(-c4nc5ccccc5o4)ccc32)c1 [Ex. 117, 5-(benzoxazol-2-yl)-1-(3-methoxycarbonylphenylmethyl)-2-methylbenzimidazole] | ++ |
| CC(=O)OCC(c1ccccc1)n1c(C)nc2cc(-c3nc4ccccc4o3)ccc21 (centres unmarked) [Ex. 118, 5-(1-benzoxazol-2-yl)-1-(1-acetoxy-2-phenylethan-2-yl)-2-methylbenzimidazole] | ++ |
| Cc1nc2cc(-c3nc4ccccc4o3)ccc2n1C(CO)c1ccccc1 (centres unmarked) [Ex. 120, 5-(1-benzoxazol-2-yl)-1-(2-phenylethanol-2-yl)-2-methylbenzimidazole] | ++ |
| Cc1nc2cc(-c3nc4ccccc4o3)ccc2n1CC(C)C(=O)OC(C)(C)C (centres unmarked) [Ex. 121, 5-(benzoxazol-2-yl)-2-methyl-1-(2-tert-butoxycarbonyl-n-propyl)benzimidazole] | ++ |
| Clc1ccccc1-c1nc2cc(-c3nc4ccccc4o3)ccc2n1C1CCOCC1 [Ex. 126, 5-(benzoxazol-2-yl)-2-(2-chlorophenyl)-1-(tetrahydropyran-4-yl)benzimidazole] | ++ |
| Cc1nc2cc(-c3nc4ccccc4o3)ccc2n1CCN(C)C [Ex. 130] | ++ |
| Cc1nc2cc(-c3nc4ccccc4o3)ccc2n1CCS(C)(=O)=O [Ex. 132, 5-(benzoxazol-2-yl)-1-(2-(methylsulfonyl)ethyl)-2-methylbenzimidazole] | ++ |
| CSCCc1nc2cc(-c3nc4ccccc4o3)ccc2n1C1CCOCC1 [Ex. 133, 5-(benzoxazol-2-yl)-2-(2-(methylthio)ethyl)-1-(tetrahydropyran-4-yl)benzimidazole] | ++ |
| CS(=O)(=O)CCc1nc2cc(-c3nc4ccccc4o3)ccc2n1C1CCOCC1 [Ex. 134, 5-(benzoxazol-2-yl)-2-(2-(methylsulfonyl)ethyl)-1-(tetrahydropyran-4-yl)benzimidazole] | ++ |
| CCCn1cnc2cc(-c3nc4cc(Cl)ccc4o3)ccc21 [Ex. 135, 5-(5-chlorobenzoxazol-2-yl)-1-n-propylbenzimidazole] | ++ |
